Test results from PMC3198734 (PLoS ONE, 2011).
Where no end group is shown, it is not given here.

Legend:
Acinetobacter baumannii = type: cell-based; conditions: data not shown
[1] = tested on: IL-1β, GM-CSF, KC, RANTES, MIP-1α in BAL fluid; type: in vivo, BALB/c mice

| Substance | antimicrobial activity of the preparation (Acinetobacter baumannii) | BAL fluid concentration of GM-CSF compared with PR/8 infected control animals ([1]; mouse, in vivo) | BAL fluid concentration of IL-1β compared with PR/8 infected control animals ([1]; mouse, in vivo) | BAL fluid concentration of KC ([1]; mouse, in vivo) | BAL fluid concentration of MIP-1α (non-significant increase after infection) ([1]; mouse, in vivo) | BAL fluid concentration of RANTES ([1]; mouse, in vivo) | BAL fluid cytokine concentrations in the absence of influenza virus infection ([1]; uninfected mice, nebulized peptide, BAL on day 3) |
| --- | --- | --- | --- | --- | --- | --- | --- |
| RGGRLCYCRRRFCVCVGR-NH2 (also: bicyclic or more (positions not given here)) [Protegrin-1, porcine neutrophil-derived cathelicidin peptide with two disulfide bridges] | confirmed | – | – | – | – | – | – |
| LLGDFFRKSKEKIGKEFKRIVQRIKDFLRNLVPRTES [LL-37, human cathelicidin peptide generated from hCAP-18] | confirmed | significantly lower | significantly lower | unchanged compared with uninfected controls | this increase was ameliorated | unchanged compared with uninfected controls | did not significantly alter cytokine concentrations |
| GLLRKGGEKIGEKLKKIGQKIKNFFQKLVPQPEQ [mCRAMP, mouse cathelicidin peptide] | confirmed | – | – | – | – | – | – |
